Reference: ChEMBL document CHEMBL1201862, “PubChem BioAssay data set” (2004)
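Test compounds were applied to cells in 96-well plates for 48 hours at 5 doses. GI50: concentration for 50% inhibition of growth.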 Activity calls are given as the source filed them. Cut-off read from the data, not from the text of the source: active = GI50 up to about 1.1 µM and inactive = higher. Where a SMILES comes first, the peptide text is derived from it. The star is where a group is joined. Boc = CC(C)(C)OC(=O)*

What was measured:
Experiment in all cases: growth of human tumour cells (NCI), 48 h
[1] = system: TK-10
[2] = system: HCT-15
[3] = system: A549
[4] = system: RXF 393
[5] = system: SK-MEL-2
[6] = system: NCI-H226
[7] = system: HL-60
[8] = system: RPMI-8226
[9] = system: OVCAR-3
[10] = system: MCF7
[11] = system: NCI-H460
[12] = system: M14
[13] = system: OVCAR-8
[14] = system: 786-0
[15] = system: Malme-3M
[16] = system: OVCAR-5
[17] = system: LOX IMVI
[18] = system: UACC-257
[19] = system: HCC 2998
[20] = system: MDA-N

| Compound | GI50 [1] | GI50 [2] | GI50 [3] | GI50 [4] | GI50 [5] | GI50 [6] | GI50 [7] | GI50 [8] | GI50 [9] | GI50 [10] | GI50 [11] | GI50 [12] | GI50 [13] | GI50 [14] | GI50 [15] | GI50 [16] | GI50 [17] | GI50 [18] | GI50 [19] | GI50 [20] |
| --- | --- | --- | --- | --- | --- | --- | --- | --- | --- | --- | --- | --- | --- | --- | --- | --- | --- | --- | --- | --- |
| O=S(=O)(Nc1nccs1)c1ccc([As](=O)(O)O)cc1 | > 100 µM (inactive) | > 100 µM | > 100 µM (inactive) | > 100 µM (inactive) | > 100 µM (inactive) | > 100 µM (inactive) | > 100 µM (inactive) | > 100 µM (inactive) | > 100 µM (inactive) | > 100 µM (inactive) | > 100 µM (inactive) | > 100 µM (inactive) | > 100 µM (inactive) | > 100 µM (inactive) | > 100 µM (inactive) | > 100 µM (inactive) | > 100 µM (inactive) |  |  |  |
| CC1=CC(=O)/C(=C/Nc2nc(-c3cccc([N+](=O)[O-])c3)cs2)C(=O)O1 | 1.93 µM (inactive) | 23 µM | > 100 µM (inactive) |  | > 100 µM (inactive) | > 100 µM (inactive) | 13.6 µM (inactive) |  | > 100 µM (inactive) | 41.6 µM (inactive) | > 100 µM (inactive) | 64.1 µM (inactive) | > 100 µM (inactive) | 30.8 µM (inactive) |  | > 100 µM (inactive) | 39.2 µM (inactive) | > 100 µM (inactive) | 31.9 µM (inactive) |  |
| O/N=C(\C=N\O)c1ccc2c(c1)Sc1ccccc1O2 | 31.4 µM (inactive) | 25.9 µM | 30.8 µM (inactive) | 15.8 µM (inactive) |  | 23.2 µM (inactive) | 20.9 µM (inactive) | 12.2 µM (inactive) | 17.7 µM (inactive) | 16.9 µM (inactive) | 23.7 µM (inactive) | 19.9 µM (inactive) | 22.8 µM (inactive) | 17.5 µM (inactive) | 29.5 µM (inactive) | 31.7 µM (inactive) | 30.5 µM (inactive) | 19.5 µM (inactive) | 23.4 µM (inactive) |  |
| CCC(C)(O)c1cn(-c2cccc(S(=O)(=O)O)c2)nn1 (stereo unspecified) | > 100 µM (inactive) | > 100 µM | > 100 µM (inactive) | > 100 µM (inactive) | > 100 µM (inactive) | > 100 µM (inactive) | > 100 µM (inactive) | > 100 µM (inactive) | > 100 µM (inactive) |  | > 100 µM (inactive) | > 100 µM (inactive) | > 100 µM (inactive) | > 100 µM (inactive) | > 100 µM (inactive) | > 100 µM (inactive) | > 100 µM (inactive) | > 100 µM (inactive) | > 100 µM (inactive) |  |
| C(#Cc1ccccc1)SC1=C(c2ccccc2)S/C(=C(\SC#Cc2ccccc2)c2ccccc2)S1 | > 100 µM (inactive) | > 100 µM | > 100 µM (inactive) |  |  | > 100 µM (inactive) |  |  | > 100 µM (inactive) | > 100 µM (inactive) | > 100 µM (inactive) | > 100 µM (inactive) | > 100 µM (inactive) | > 100 µM (inactive) |  | > 100 µM (inactive) | > 100 µM (inactive) | > 100 µM (inactive) | > 100 µM (inactive) | > 100 µM (inactive) |
| O=c1oc(-c2ccc(O)cc2)cc2cc(O)ccc12 | 41.6 µM (inactive) | 43.2 µM | 41.5 µM (inactive) | 23.5 µM (inactive) | 33.3 µM (inactive) |  | 18.5 µM (inactive) | 48.8 µM (inactive) | 27.5 µM (inactive) | 20.6 µM (inactive) | 22.6 µM (inactive) | 24.2 µM (inactive) | 41.9 µM (inactive) | 39.4 µM (inactive) | 30.1 µM (inactive) | 43.2 µM (inactive) |  | 52 µM (inactive) | 23.1 µM (inactive) |  |
| Cn1ccc(C(=O)NCCN(CCNC(=O)c2ccn(C)c(=O)c2O)CCNC(=O)c2cccc(=O)n2O)c(O)c1=O |  | > 100 µM | > 100 µM (inactive) | > 100 µM (inactive) | > 100 µM (inactive) | > 100 µM (inactive) | > 100 µM (inactive) | > 100 µM (inactive) | > 100 µM (inactive) | > 100 µM (inactive) | > 100 µM (inactive) | > 100 µM (inactive) | > 100 µM (inactive) | > 100 µM (inactive) | > 100 µM (inactive) | > 100 µM (inactive) | > 100 µM (inactive) | > 100 µM (inactive) | > 100 µM (inactive) |  |
| COc1cccc(C2c3cc4c(cc3OC(N3CCCC3)C2C)OCO4)c1OC (stereo unspecified) | 5.74 µM (inactive) | 2.25 µM | 3.53 µM (inactive) |  | 3.89 µM (inactive) |  |  | 3.61 µM (inactive) | 1.66 µM (inactive) | 4.58 µM (inactive) | 3.17 µM (inactive) | 9.08 µM (inactive) | 2.96 µM (inactive) | 3.89 µM (inactive) |  | 3.67 µM (inactive) | 1.96 µM (inactive) | 1.72 µM (inactive) |  | 4.76 µM (inactive) |
| COc1ccc(NC(=O)CCc2cc(C(C)(C)C)[nH]n2)cc1 | > 100 µM (inactive) | > 100 µM | > 100 µM (inactive) | > 100 µM (inactive) | > 100 µM (inactive) | > 100 µM (inactive) | > 100 µM (inactive) | > 100 µM (inactive) | > 100 µM (inactive) |  | > 100 µM (inactive) | > 100 µM (inactive) | > 100 µM (inactive) | > 100 µM (inactive) | > 100 µM (inactive) | > 100 µM (inactive) | > 100 µM (inactive) | > 100 µM (inactive) | > 100 µM (inactive) |  |
| Nc1nc(-c2ccccc2)nc2c1[n+]([O-])c1ccccc1[n+]2[O-] | > 100 µM (inactive) | > 100 µM | > 100 µM (inactive) | > 100 µM (inactive) | > 100 µM (inactive) | > 100 µM (inactive) | > 100 µM (inactive) | > 100 µM (inactive) | > 100 µM (inactive) | > 100 µM (inactive) | > 100 µM (inactive) | > 100 µM (inactive) | > 100 µM (inactive) | > 100 µM (inactive) | > 100 µM (inactive) | > 100 µM (inactive) | > 100 µM (inactive) | > 100 µM (inactive) | > 100 µM (inactive) |  |
| Cc1cnc2nc(-c3sccc3C)cc(O)c2c1 | > 33.7 µM (inactive) | 1.57 µM | 3.96 µM (inactive) | 3.42 µM (inactive) | 3.4 µM (inactive) | 4.14 µM (inactive) |  |  | 3.13 µM (inactive) | 2.84 µM (inactive) | 2.99 µM (inactive) | 2.25 µM (inactive) | 4.06 µM (inactive) | 4.1 µM (inactive) | 1.37 µM (inactive) | > 24 µM (inactive) | 7.83 µM (inactive) | 8.38 µM (inactive) | 6.07 µM (inactive) | 0.361 µM (active) |
| CC(NC(=O)C(NC(=O)OC(C)(C)C)C(C)C)C(=O)NCC(=O)O (stereo not drawn) (Boc-Val-Ala-Gly-OH; configuration not given here) | > 100 µM (inactive) | > 100 µM | > 100 µM (inactive) | > 100 µM (inactive) | > 100 µM (inactive) | > 10 µM (inactive) |  | > 100 µM (inactive) | > 100 µM (inactive) |  | > 100 µM (inactive) | > 100 µM (inactive) | > 100 µM (inactive) | > 100 µM (inactive) | > 100 µM (inactive) | > 100 µM (inactive) |  | > 100 µM (inactive) | > 100 µM (inactive) | > 100 µM (inactive) |
